Compound: CC1=NN=C(O1)C2=NN=C(C=C2)N3CCC(CC3)OC4=C(C=CC(=C4)F)Cl + COc1cc2c(Oc3ccc(NC(=O)C4(C(=O)Nc5ccc(F)cc5)CC4)cc3F)ccnc2cc1OCCCN1CCOCC1 [Foretinib] (partner 0.25 µM)
Experiment: relative viability (nuclei count vs DMSO), 5 days (fraction); higher = more cells survive
Conditions: first compound 0.253 µM
Outline: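 Medians of duplicate plates are given as relative viability. That measure is the nuclei count in treated wells divided by the count in vehicle wells. Counts were taken on 4× images of lung cancer cell lines in 1536-well plates, 5 days after pin-tool dosing the day after seeding with one drug alone or a fixed anchor-drug dose plus five library-drug doses (not always all listed) in √10 steps.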

First: EBC-1
Second: NCI-H2087
The relative viability of the first is lower: 0.0917 for the first, 0.593 for the second.

Compared with NCI-H596, NCI-H1355 is higher in relative viability: 0.71 for the first, 0.723 for the second.

Compared with SW 1573, LCLC-103H is lower in relative viability: 0.99 for the first, 0.579 for the second.

First: NCI-H727
Second: NCI-H2405
The relative viability of the first is higher: 0.786 for the first, 0.582 for the second.

Going from EMC-BAC-2 to NCI-H23, the relative viability rises from 0.968 to 0.981.

Compared with Calu-6, HCC-366 is lower in relative viability: 0.602 for the first, 0.46 for the second.

Compared with NCI-H1755, NCI-H838 is higher in relative viability: 0.641 for the first, 0.887 for the second.

Compared with LK-2, NCI-H2347 is lower in relative viability: 1.11 for the first, 0.904 for the second.

Compared with NCI-H2342, SK-MES-1 is higher in relative viability: 0.671 for the first, 0.824 for the second.

First: H3255
Second: COR-L23
The relative viability of the first is lower: 0.793 for the first, 0.901 for the second.

First: COR-L 105
Second: IA-LM
The relative viability of the first is higher: 0.994 for the first, 0.164 for the second.

Going from LU99A to ChaGo-K-1, the relative viability falls from 0.826 to 0.773.

Compared with NCI-H2170, A549 is higher in relative viability: 0.466 for the first, 0.746 for the second.

First: NCI-H650
Second: NCI-H661
The relative viability of the first is higher: 1.01 for the first, 0.912 for the second.

First: NCI-H1299
Second: NCI-H1563
The relative viability of the first is higher: 1.09 for the first, 0.925 for the second.

First: ABC-1
Second: NCI-H358
The relative viability of the first is higher: 0.601 for the first, 0.512 for the second.

Same assay, conditions: first compound 0.8 µM

Compared with NCI-H1623, NCI-H1703 is lower in relative viability: 0.669 for the first, 0.438 for the second.

Going from EBC-1 to NCI-H2087, the relative viability rises from 0.0957 to 0.641.

Compared with NCI-H596, NCI-H1355 is higher in relative viability: 0.751 for the first, 0.802 for the second.

First: SW 1573
Second: LCLC-103H
The relative viability of the first is higher: 0.86 for the first, 0.596 for the second.

Going from NCI-H727 to NCI-H2405, the relative viability falls from 0.822 to 0.564.

Compared with EMC-BAC-2, Calu-6 is lower in relative viability: 0.95 for the first, 0.597 for the second.

First: HCC-366
Second: NCI-H1755
The relative viability of the first is lower: 0.574 for the first, 0.719 for the second.

Compared with NCI-H838, LK-2 is higher in relative viability: 0.83 for the first, 1.05 for the second.

First: NCI-H2347
Second: NCI-H2342
The relative viability of the first is higher: 0.931 for the first, 0.627 for the second.

Compared with SK-MES-1, H3255 is lower in relative viability: 0.835 for the first, 0.644 for the second.

Going from COR-L23 to COR-L 105, the relative viability rises from 0.836 to 1.06.

First: IA-LM
Second: LU99A
The relative viability of the first is lower: 0.158 for the first, 0.868 for the second.

First: ChaGo-K-1
Second: NCI-H2170
The relative viability of the first is higher: 0.709 for the first, 0.575 for the second.

First: A549
Second: NCI-H650
The relative viability of the first is lower: 0.545 for the first, 0.959 for the second.

First: NCI-H661
Second: NCI-H1299
The relative viability of the first is lower: 0.845 for the first, 1.08 for the second.

Going from NCI-H1563 to ABC-1, the relative viability falls from 0.866 to 0.439.

In the case of NCI-H358, the relative viability is reported as 0.393.

Same assay, conditions: first compound 2.53 µM

First: NCI-H1623
Second: SK-LU-1
The relative viability of the first is higher: 0.771 for the first, 0.696 for the second.

Compared with NCI-H1703, EBC-1 is lower in relative viability: 0.394 for the first, 0.103 for the second.

Compared with NCI-H2087, NCI-H596 is higher in relative viability: 0.626 for the first, 0.837 for the second.

First: NCI-H1355
Second: SW 1573
The relative viability of the first is lower: 0.895 for the first, 0.909 for the second.

First: LCLC-103H
Second: NCI-H727
The relative viability of the first is lower: 0.494 for the first, 0.838 for the second.

Compared with NCI-H2405, EMC-BAC-2 is higher in relative viability: 0.546 for the first, 0.89 for the second.

Compared with NCI-H23, Calu-6 is lower in relative viability: 0.792 for the first, 0.517 for the second.

First: HCC-366
Second: NCI-H1755
The relative viability of the first is lower: 0.466 for the first, 0.731 for the second.

Compared with NCI-H838, LK-2 is higher in relative viability: 0.868 for the first, 1.45 for the second.

Compared with NCI-H2347, NCI-H2342 is lower in relative viability: 0.707 for the first, 0.684 for the second.

First: SK-MES-1
Second: H3255
The relative viability of the first is higher: 0.939 for the first, 0.783 for the second.

First: COR-L23
Second: COR-L 105
The relative viability of the first is lower: 0.869 for the first, 1.12 for the second.

Compared with IA-LM, LU99A is higher in relative viability: 0.171 for the first, 0.836 for the second.

Compared with ChaGo-K-1, NCI-H2170 is lower in relative viability: 0.785 for the first, 0.583 for the second.

Going from A549 to SW 900, the relative viability rises from 0.464 to 0.822.

Compared with NCI-H650, NCI-H661 is lower in relative viability: 0.911 for the first, 0.837 for the second.

First: NCI-H1299
Second: NCI-H1563
The relative viability of the first is higher: 1.05 for the first, 0.931 for the second.

Compared with ABC-1, NCI-H358 is lower in relative viability: 0.578 for the first, 0.512 for the second.

Same assay, conditions: first compound 8 µM

Going from NCI-H1623 to SK-LU-1, the relative viability falls from 0.781 to 0.557.

First: NCI-H1703
Second: EBC-1
The relative viability of the first is higher: 0.478 for the first, 0.0946 for the second.

Compared with NCI-H2087, NCI-H596 is higher in relative viability: 0.489 for the first, 0.682 for the second.

Going from NCI-H1355 to SW 1573, the relative viability falls from 0.845 to 0.569.

Going from LCLC-103H to NCI-H727, the relative viability rises from 0.582 to 0.828.

Going from NCI-H2405 to EMC-BAC-2, the relative viability rises from 0.555 to 0.98.

Compared with NCI-H23, Calu-6 is lower in relative viability: 0.841 for the first, 0.573 for the second.

Going from HCC-366 to NCI-H1755, the relative viability rises from 0.343 to 0.647.

First: NCI-H838
Second: LK-2
The relative viability of the first is lower: 0.88 for the first, 1.5 for the second.

Compared with NCI-H2347, NCI-H2342 is lower in relative viability: 0.824 for the first, 0.545 for the second.

Compared with SK-MES-1, H3255 is lower in relative viability: 0.855 for the first, 0.673 for the second.

Going from COR-L23 to COR-L 105, the relative viability rises from 0.672 to 1.08.

Going from IA-LM to LU99A, the relative viability rises from 0.167 to 0.742.

Compared with ChaGo-K-1, NCI-H2170 is lower in relative viability: 0.739 for the first, 0.432 for the second.

A549 showed a relative viability of 0.53.

From the supplement of paper PMC10307832
